PubChem BioAssay AID720590 (Broad Institute, 2013)
Calls of active or inactive are those of the source. The rule behind the calls is not given here.

molecular target: Mycobacterium tuberculosis BioA (adenosylmethionine-8-amino-7-oxononanoate aminotransferase); experiment: inhibition of M. tuberculosis BioA aminotransferase – biochemical, plate reader, dry powder samples, dose response (AID 720590); details: M. tuberculosis BioA enzyme assay

SMILES	AC50
Cc1ccc(/C=C(\CCC(=O)O)c2nc3ccccc3s2)cc1[N+](=O)[O-]	< 0.08 µM
O=C(c1ccc2c(c1)OCO2)N1CCN(Cc2ccccc2)CC1	> 20 µM (inactive)
O=C(Nc1ccc(Cl)c(-c2nc3ccccc3[nH]2)c1)c1cccnc1	0.181 µM
COc1cccc(NC(=O)CCC2CCN(C(=O)c3ccc(C(C)=O)s3)CC2)c1	0.225 µM
CC(C)(C)c1ccc(C(=O)N2CCN(c3ccc4c(c3)OCO4)CC2)cc1	> 20 µM (inactive)
CC(=O)c1ccc(N2CCN(Cc3ccc4c(c3)OCO4)CC2)cc1	0.133 µM
CC(=O)c1ccc(N2CCN(C(=O)c3ccc4c(c3)OCO4)CC2)cc1	< 0.08 µM
O=C(Nc1ccc2snnc2c1)N1CCOCC1	0.896 µM
COc1cccc(NC(=O)N2CCN(c3ccccc3)CC2)c1	> 20 µM (inactive)
O=C(O)CC/C(=C\c1ccccc1[N+](=O)[O-])c1nc2ccccc2s1	> 20 µM (inactive)
O=C(COc1ccc2ccc(=O)oc2c1)N1CCN(c2ccc(F)cc2)CC1	0.162 µM
Cc1ccc(-c2cc(C(F)(F)F)n3nc(C(=O)Nc4cccnc4)cc3n2)cc1	< 0.08 µM
CC(=O)c1ccc(N2CCN(C(=O)c3ccc(C)cc3)CC2)cc1	0.746 µM
CCOC(=O)N1CCN(C(=O)Nc2ccc3snnc3c2)CC1	0.424 µM
CC(=O)c1ccc(N2CCN(C(=O)c3ccc(Br)cc3)CC2)c(F)c1	< 0.08 µM
O=C(Nc1cccc(F)c1)N1CCN(c2ccccc2)CC1	4.33 µM
Cc1ccc(/C=C(\CCC(=O)O)c2nc3ccccc3s2)cc1	7.24 µM
CCN(CC)c1ccc2cc(C(=O)c3cccs3)c(=O)oc2c1	< 0.08 µM
CCc1ccc(N2CCN(C(=O)c3ccc4c(c3)OCO4)CC2)cc1	> 20 µM (inactive)
COc1ccc(C(=O)N2CCN(c3ccc(C(C)=O)cc3)CC2)cc1	1.28 µM
CC(=O)c1ccc(N2CCN(C(=O)c3cccc(Cl)c3)CC2)cc1	0.0955 µM
O=C(Nc1ccc2snnc2c1)N1CCN(c2ccccc2)CC1	< 0.08 µM
O=C(c1ccc2c(c1)OCO2)N1CCN(c2ccc(Cl)cc2)CC1	4.32 µM

SMILES	AC50
O=C(Nc1ccc(F)cc1)N1CCN(c2ccccc2)CC1	6.63 µM
O=C(O)CC/C(=C\c1ccc([N+](=O)[O-])cc1)c1nc2ccccc2s1	0.988 µM
Cc1cc(C)n2nc(C(=O)Nc3cccnc3)nc2n1	0.673 µM
O=C(c1ccc2c(c1)OCO2)N1CCN(c2ccccc2)CC1	> 20 µM (inactive)
CC(=O)c1ccc(N2CCN(C(=O)c3ccc(Cl)cc3)CC2)cc1	0.751 µM
CC(=O)c1ccc(N2CCN(C(=O)c3ccc4c(c3)OCCO4)CC2)cc1	2.83 µM
CC(=O)c1ccc(N2CCN(C(=O)c3cccc(F)c3)CC2)cc1	0.731 µM
CC(=O)c1ccc(N2CCN(C(=O)c3cccnc3)CC2)cc1	2.04 µM
COc1ccc(N2CCN(C(=O)c3ccc4c(c3)OCO4)CC2)cc1	5.32 µM
Cc1cc(C)n2nc(C(=O)Nc3cccnc3)cc2n1	0.15 µM
CC(=O)c1ccc(N2CCN(C(=O)c3ccccc3)CC2)cc1	0.161 µM
COC(=O)c1c(C(=O)OC)c(-c2cccc(F)c2)n2c1CS(=O)C2 (stereo unspecified)	0.115 µM
CC(=O)c1ccc(N2CCN(C(=O)c3ccc(F)cc3)CC2)cc1	0.3 µM
CCc1ccc(C(=O)N2CCN(Cc3ccc4c(c3)OCO4)CC2)cc1	> 20 µM (inactive)
O=C(Nc1cccnc1)c1cnn2c(C(F)F)cc(C3CC3)nc12	0.252 µM
Cc1ccccc1/C=C(\CCC(=O)O)c1nc2ccccc2s1	7.62 µM
COc1cc(/C=C/C(=O)Nc2cccnc2)cc(OC)c1OC	0.107 µM
COc1ccc(-c2cc(C(F)(F)F)n3nc(C(=O)Nc4cccnc4)cc3n2)cc1	< 0.08 µM
O=C(Nc1ccc2snnc2c1)N1CCCCC1	1.46 µM
CC(=O)c1ccc(N2CCN(C(=O)c3ccc4ncsc4c3)CC2)cc1	0.246 µM
Cc1ccc(/C=C(\CCCC(=O)O)c2nc3ccccc3s2)cc1[N+](=O)[O-]	0.953 µM
O=C(Nc1cccnc1)c1cc2nc(-c3cccs3)cc(C(F)(F)F)n2n1	0.0871 µM
COc1cccc(C(=O)N2CCN(c3ccc(C(C)=O)cc3)CC2)c1	0.602 µM

same assay, conditions: M. tuberculosis BioA enzyme assay, at 10 µM (top of the series)

SMILES	activity change, negative = inhibition
Cc1nc2cc(NC(=O)N3CCN(c4ccccc4)CC3)ccc2o1	inactive
O=C(Nc1ccc2[nH]ccc2c1)N1CCN(c2ccccc2)CC1	inactive
O=C(c1ccc2c(c1)OCO2)N1CCN(c2ccc(F)cc2)CC1	inactive
COc1ccc(NC(=O)N2CCN(c3ccccc3)CC2)cc1	inactive
Cc1ccc(NC(=O)N2CCN(c3ccccc3)CC2)cc1	inactive
O=C(Nc1ccncc1)c1cc2nc(C3CC3)cc(C(F)F)n2n1	inactive
Cc1nc2ccc(NC(=O)N3CCN(c4ccccc4)CC3)cc2s1	inactive
O=C(Nc1ccc(Cl)cc1)c1cc2nc(C3CC3)cc(C(F)(F)F)n2n1	inactive
O=C(Nc1ccccc1)N1CCN(c2ccccc2)CC1	inactive
O=C(Nc1cccnc1)c1cnn2c(C(F)(F)F)cc(-c3ccccc3)nc12	inactive
